Laboratory results published in patent publication US20240246963A1, “BIFUNCTIONAL COMPOUNDS AND PHARMACEUTICAL USES THEREOF” (RISEN (SUZHOU) PHARMA TECH CO., LTD., priority 2022, published 2024).

Molecular target: T1, RAS G12D protein (Homo sapiens, UniProt P01116, G12D)
T1 construct: host or cells: Aspc-1 (AsPC-1) cells
Test: Protein degradation study (western blot) in Aspc-1 cells
Assay type: cell-based
Conditions: for DC50: half-maximum degradation concentration on G12D in Aspc-1 cells
Experimental: Aspc-1 (Cobioer, CBP60546) cells in exponential growth phase were inoculated on a 6-well cell culture plate (Corning, 3516) at density of 1E6/well; and cells in the plate were cultured in a 37° C. incubator containing 5%-carbon dioxide. The next day, test compounds were dissolved in DMSO (Sigma, RNBF5902) for the preparation of a 10-mM concentration stock solution. The stock solution was diluted with complete medium (RPMI-1640 supplemented with 10% fetal bovine serum, 1% penicillin-streptomycin), yielding working solutions of various concentrations. The plate, after the addition of compounds, was placed in a 5% carbon dioxide incubator, and incubated at 37° C. for 24 hours (final DMSO concentration was 0.1%). The plate was then removed from the incubator, and the cells were washed twice with precooled PBS (Gibco, 14190250), followed by addition of 80 μL RIPA (CST, 9806S) lysis buffer (containing protease inhibitor (Invitrogen™, AM2696)) to each well. The adherent cells were scraped off with a cell scraper, and the cell lysate was transferred to a 1.5 mL centrifuge tube followed with a 30-minute incubation on ice. The lysate was then clarified with centrifugation at 12000 rpm for 10 min at 4° C. The supernatant was transferred into a new 1.5 mL centrifuge tube, and protein concentration was measured with BCA protein detection kit (Thermo Fisher, 23225). G12D protein level was assessed by western blot. A mixture of cell lysate (40 μL) and loading buffer (10 μL, 5×SDS (Beyotime, P0015L)) was denatured in a water-bath at 95° C. for 10 min. The denatured protein sample, at 30 μg/well, was loaded into a corresponding well of a 4-20% Bis-Tris gel (Kingsley, M00656). Protein samples were initially electrophoresed at 80 V for 30 minutes, followed by 120 V for 40 minutes, until the bromophenol blue strip ran to an appropriate position. After electrophoresis, iBlot2 (Life Technologies, IB21001) was used to transfer the separated samples onto PVDF film. The PVDF membrane was washed with double-distilled water and then blocked in TBST (Thermo Scientific, 28360) buffer containing 5% non-fat milk, for 2 hours. Blocked membrane was rinsed with tris-buffered saline tween-2 (Thermo Scientific, 28360, TBST) three times, 10 minutes each. Membrane was then incubated with 1:1000 diluted RAS Gi2D primary antibody (CST, cat #14429S) overnight at 4° C. Membrane was rinsed in a way described previously followed by 1 hour incubation of secondary antibody at room temperature. After washing the film for three times with TBST, ECL color developing solution was applied, and image was captured with Biorad Chemi Doc gel imager. The band gray value was quantified (Image Lab), and protein degradation level was calculated according to the following formulas:
Level of RAS G12D protein expression=(RAS G12D−compound/β-Actin)−compound/(RAS G12D−DMSO/β-Actin−DMSO)
Level of degradation (%)=(1−Rate of RAS G12D protein expression)×100
Symbols of −, +, ++, +++, ++++, +++++ indicate that the degradation level of Ras protein induced by test compounds was 10% or less, 10 to 30%, 30 to 60%, 60 to 70%, 70 to 75%, and greater than 75%, respectively. “NT” indicates not tested.
“NT” indicates not tested.

[1] = ASPC1, 24 h, 0.005 μM compound, Aspc-1 cells, 24 hours, read-out: Rate of protein degradation (%)
[2] = ASPC1, 24 h, 0.05 μM compound, Aspc-1 cells, 24 hours, read-out: Rate of protein degradation (%)

T1 sequence (P01116 1-188 isoform P01116-2 G12D): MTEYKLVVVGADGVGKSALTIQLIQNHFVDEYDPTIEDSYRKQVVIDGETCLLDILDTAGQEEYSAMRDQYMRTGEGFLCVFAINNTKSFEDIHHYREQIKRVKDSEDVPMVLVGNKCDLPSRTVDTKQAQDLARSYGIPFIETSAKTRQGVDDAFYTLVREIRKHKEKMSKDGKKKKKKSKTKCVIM

Row | percent protein degradation at 0.005 µM [1] [%] | percent protein degradation at 0.05 µM [2] [%] | Compound | also measured
1 | 10 to 30 | ≤ 10 | CCc1c(F)ccc2cc(O)cc(-c3c(Cl)cc4c(N5CCC[C@]6(CCO6)C5)nc(OCC5(CN6CCC7(CC6)CC(N6CCC(c8cc9c(cc8F)c(N8CCC(=O)NC8=O)nn9C)CC6)C7)CC5)nc4c3F)c12 (atropisomer, axis not shown) [Compound 239] | –
2 | 10 to 30 | 10 to 30 | CCc1c(F)ccc2cc(O)cc(-c3ncc4c(N5CCC[C@]6(CCO6)C5)nc(OCC5(CN6CCC(C(=O)N7CCC(c8cc9c(cc8F)c(N8CCC(=O)NC8=O)nn9C)CC7)CC6)CC5)nc4c3F)c12 [Compound 224] | –
3 | 30 to 60 | 30 to 60 | CCc1c(F)ccc2cc(O)cc(-c3ncc4c(N5CCC[C@]6(CCO6)C5)nc(OCC5(CN6CCC(N7CCC(c8cc9c(cc8F)c(N8CCC(=O)NC8=O)nn9C)CC7)CC6)CC5)nc4c3F)c12 [Compound 225] | –
4 | 10 to 30 | 30 to 60 | CCc1c(F)ccc2cc(O)cc(-c3ncc4c(N5CCC[C@]6(CCO6)C5)nc(OCC5(CN6CCC(N7CCC(c8cc9c(cc8F)c(N8CCC(=O)NC8=O)nn9C)CC7)C6)CC5)nc4c3F)c12 (some centres unmarked) [Compound 226] | –
5 | ≤ 10 | 10 to 30 | CCc1c(F)ccc2cc(O)cc(-c3ncc4c(N5CCC[C@]6(CCO6)C5)nc(OCC5(CN6CCC7(CC6)CC(N6CCC(c8cnn(C9CCC(=O)NC9=O)c(=O)c8)CC6)C7)CC5)nc4c3F)c12 (some centres unmarked) [Compound 227] | –
6 | 10 to 30 | 30 to 60 | CCc1c(F)ccc2cc(O)cc(-c3ncc4c(N5CCC[C@]6(CCO6)C5)nc(OCC5(CN6CCC7(CC6)CC(N6CCC(c8ccc(NC9CCC(=O)NC9=O)nc8)CC6)C7)CC5)nc4c3F)c12 (some centres unmarked) [Compound 229] | –
7 | ≤ 10 | ≤ 10 | CCc1c(F)ccc2cc(O)cc(-c3ncc4c(N5CCC[C@]6(CCO6)C5)nc(OCC5(CN6CCC7(CC6)CC(N6CCC(c8ccc(C9CCC(=O)NC9=O)cn8)CC6)C7)CC5)nc4c3F)c12 (some centres unmarked) [Compound 230] | –
8 | 10 to 30 | 30 to 60 | CCc1c(F)ccc2cc(O)cc(-c3ncc4c(N5CCC[C@]6(CCO6)C5)nc(OCC5(CN6CCC7(CC6)CC(N6Cc8cc9c(cc8C6)C(=O)N(C6CCC(=O)NC6=O)C9=O)C7)CC5)nc4c3F)c12 (some centres unmarked) [Compound 231] | –
9 | 10 to 30 | 30 to 60 | CCc1c(F)ccc2cc(O)cc(-c3ccc4c(N5CCC[C@]6(CCO6)C5)nc(OCC5(CN6CCC7(CC6)CC(N6CCC(c8cc9c(cc8F)c(N8CCC(=O)NC8=O)nn9C)CC6)C7)CC5)nc4c3F)c12 [Compound 232] | –
10 | 10 to 30 | 30 to 60 | CCc1c(F)ccc2cc(O)cc(-c3ncc4c(N5CCC[C@]6(CCO6)C5)nc(OCC5(CN6CCC7(CCC(N8Cc9cc%10c(cc9C8)C(=O)N(C8CCC(=O)NC8=O)C%10=O)CC7)CC6)CC5)nc4c3F)c12 (some centres unmarked) [Compound 233] | –

More lines, now with the values behind:

Row | Compound | percent protein degradation at 0.005 µM [1] [%] | percent protein degradation at 0.05 µM [2] [%] | also measured
11 | CCc1c(F)ccc2cc(O)cc(-c3c(Cl)cc4c(N5CCC[C@]6(CCO6)C5)nc(OCC5(CN6CCC7(CC6)CC(N6CCC(c8cc9c(cc8F)c(N8CCC(=O)NC8=O)nn9C)CC6)C7)CC5)nc4c3F)c12 (atropisomer, axis not shown) [Compound 240] | – | – | Rate of protein degradation (%) (0.005 μM compound, Aspc-1 cells, 24 hours): + (10 to 30%); Rate of protein degradation (%) (0.05 μM compound, Aspc-1 cells, 24 hours): + (10 to 30%)
12 | CCc1c(F)ccc2cc(O)cc(-c3ncc4c(N5CCC[C@@](C)(O)C5)nc(OC5CCN(CC(=O)N6CCC7(CC6)CC(N6CCC(c8ccc9c(C%10CCC(=O)NC%10=O)nn(C)c9c8)CC6)C7)CC5)nc4c3F)c12 (some centres unmarked) [Compound 194] | – | – | DC50: > 1000 nM
13 | CCc1c(F)ccc2cc(O)cc(-c3ncc4c(N5CCC[C@@](C)(O)C5)nc(OCC5(CN6CCC7(CC6)CC(N6CC=C(c8ccc9c(c8)CN(C8CCC(=O)NC8=O)C9=O)CC6)C7)CC5)nc4c3F)c12 (some centres unmarked) [Compound 196] | – | – | DC50: 1 to 10 nM
14 | CCc1c(F)ccc2cc(O)cc(-c3ncc4c(N5CCC[C@@](C)(O)C5)nc(OCC5(CN6CCC7(CC6)CC(N6CCC(c8ccc(NC9CCC(=O)NC9=O)cc8F)CC6)C7)CC5)nc4c3F)c12 (some centres unmarked) [Compound 197] | 30 to 60 | 60 to 70 | percent protein degradation at 0.001 µM (ASPC1, 24 h, 1 nM compound, Aspc-1 cells, 24 hours, read-out: Rate of protein degradation (%)): 10 to 30%
15 | C#Cc1c(F)ccc2cccc(-c3ncc4c(N5CCC[C@](C)(O)C5)nc(OCC5(CN6CCC7(CC6)CC(N6CCC(c8ccc9c%10c(cccc8%10)C(=O)N9C8CCC(=O)NC8=O)CC6)C7)CC5)nc4c3F)c12 (some centres unmarked) [Compound 198] | 30 to 60 | 30 to 60 | –
16 | CCc1c(F)ccc2cccc(-c3ncc4c(N5CCC[C@](C)(O)C5)nc(OCC5(CN6CCC7(CC6)CC(N6CCC(c8ccc9c%10c(cccc8%10)C(=O)N9C8CCC(=O)NC8=O)CC6)C7)CC5)nc4c3F)c12 (some centres unmarked) [Compound 199] | 30 to 60 | 30 to 60 | –
17 | C#Cc1c(F)ccc2cc(O)cc(-c3ncc4c(N5CC=CCC5)nc(OCC5(CN6CCC7(CC6)CC(N6CCC(c8cc9c(cc8F)c(N8CCC(=O)NC8=O)nn9C)CC6)C7)CC5)nc4c3F)c12 [Compound 203] | 10 to 30 | – | –
18 | C#Cc1c(F)ccc2cc(O)cc(-c3ncc4c(N5CCC=CCC5)nc(OCC5(CN6CCC7(CC6)CC(N6CCC(c8cc9c(cc8F)c(N8CCC(=O)NC8=O)nn9C)CC6)C7)CC5)nc4c3F)c12 [Compound 206] | 10 to 30 | 10 to 30 | –
19 | CCc1c(F)ccc2cc(O)cc(-c3ncc4c(N5CCC[C@]6(CCO6)C5)nc(OCC5(CN6CCC7(CC6)CC(N6CCC(c8ccc(C(=O)NC9CCC(=O)NC9=O)c(F)c8)CC6)C7)CC5)nc4c3F)c12 (some centres unmarked) [Compound 209] | ≤ 10 | ≤ 10 | –
20 | CCc1c(F)ccc2cc(O)cc(-c3ncc4c(N5CCC[C@]6(CCO6)C5)nc(OCC5(CN6CCC(c7ccc8c(C9CCC(=O)NC9=O)nn(C)c8c7)CC6)CC5)nc4c3F)c12 (some centres unmarked) [Compound 212] | ≤ 10 | 10 to 30 | –
21 | CCc1c(F)ccc2cc(O)cc(-c3ncc4c(N5CCC[C@]6(CCO6)C5)nc(OCC5(CN6CCC(CN7CCC(c8ccc9c(C%10CCC(=O)NC%10=O)nn(C)c9c8)CC7)C6)CC5)nc4c3F)c12 (some centres unmarked) [Compound 215] | 10 to 30 | 30 to 60 | –
22 | CCc1c(F)ccc2cc(O)cc(-c3ncc4c(N5CCC[C@]6(CCO6)C5)nc(OCC5(CN6CCC(N7CCC(c8ccc9c(N%10CCC(=O)NC%10=O)nn(C)c9c8)CC7)CC6)CC5)nc4c3F)c12 [Compound 218] | 10 to 30 | 30 to 60 | –
23 | CCc1c(F)ccc2cc(O)cc(-c3ncc4c(N5CCC[C@]6(CCO6)C5)nc(OCC5(CN6CCC7(CC(N8CCC(c9cc%10c(cc9F)c(N9CCC(=O)NC9=O)nn%10C)CC8)C7)C6)CC5)nc4c3F)c12 (some centres unmarked) [Compound 219] | 30 to 60 | 60 to 70 | –
24 | CCc1c(F)ccc2cc(O)cc(-c3ncc4c(N5CCC[C@]6(CCO6)C5)nc(OCC5(CN6CCC(C(=O)N7CCC(c8ccc9c(C%10CCC(=O)NC%10=O)nn(C)c9c8)CC7)CC6)CC5)nc4c3F)c12 (some centres unmarked) [Compound 220] | 30 to 60 | 30 to 60 | Dmax (ASPC1, G12D in Aspc-1 cells): 55%; DC50: 1 to 10 nM
25 | CCc1c(F)ccc2cc(O)cc(-c3ncc4c(N5CCC[C@]6(CCO6)C5)nc(OCC5(CN6CCC7(CC(c8cc9c(cc8F)c(N8CCC(=O)NC8=O)nn9C)C7)C6)CC5)nc4c3F)c12 (some centres unmarked) [Compound 222] | ≤ 10 | ≤ 10 | –
